Laboratory results published in patent US4895835A, “Muramyl peptide derivatives and use thereof” (priority 1987, dated 1990).

Legend:
BCG killed vaccine = assay: Enhancing action on BCG vaccine (adjuvant activity), 24 hours foot-pad test; type: in vivo; details: ICR mouse; s.c. 0.2 ml mixture of BCG killed vaccine (100 μg/ml) and compound in Freund's incomplete adjuvant (1000 μg/ml); tuberculin 10 μg after 14 days; measured after 24 hours
Description: (1) Enhancing action on BCG vaccine (adjuvant activity)
0.2 ml of an equivalent weight mixture of a solution of BCG killed vaccine in physiological saline (100 μg/ml) and a solution of a compound of the invention in Freund's incomplete adjuvant (1000 μg/ml) was subcutaneously injected to the back of ICR mouse (one group consisting of 7 mice). After 14 days, 10 μg of tuberculin was intradermally injected into the hind foot-pad. Swelling of the foot-pad was measured after 24 hours (24 hours foot-pad test).
The control is the above mentioned mixture excluded a compound of the invention.

[1] = tested on: B type hepatitis vaccine (HBs); assay: Enhancing effect on hepatitis vaccine (adjuvant activity), IgG antibody by ELISA; type: in vivo; details: CDF1 mouse; for Anti HBs-ELISA unit, Primary response serum: i.p. 0.2 ml compound (100 μg/ml) mixed with HBs vaccine, serum at 3 weeks; for Anti HBs-ELISA unit, Secondary response serum: second i.p. injection of 0.2 ml test solution, serum at 2 weeks
Description: (2) Enhancing effect on hepatitis vaccine (adjuvant activity)
A compound of the invention was dissolved or suspended in physiological saline (100 μg/ml), and mixed with a solution of B type hepatitis vaccine (HBs) in physiological saline (100 μg/m) at an equivalent weight ratio to obtain the test solution. A solution excluded the compound of the invention from the test solution was used as control.
The test solution (0.2 ml) was intraperitoneally injected into CDF1 mouse (one group consisting of 10 mice). At 3 weeks after the administration, a blood was taken from the intravenous vein in eyeground of each the mice and centrifuged to obtain serum (primary response serum). Further, 0.2 ml of the test solution was again intraperitoneally injected into each mice, and at 2 weeks stage, serum was separated in the similar way (secondary response serum).
Value for IgG antibody against B type hepatitis virus of the resulting serum was measured by ELISA method.

[2] = tested on: influenza HA vaccine (A/Bangkok/10/83 strain, H1N1); assay: Enhancing effect on influenza HA vaccine (adjuvant activity), ELISA; type: in vivo; details: CDF1 mouse, compound (100 μg/ml) mixed with influenza HA vaccine (100 CCA/ml)
Description: (3) Enhancing effect on influenza HA vaccine (adjuvant activity)
A compound of the invention was dissolved or suspended in physiological saline (100 μg/ml). Separately, influenza HA vaccine (A/Bangkok/10/83 strain, H1N1) was dissolved in physiological saline (100 CCA/ml). These two solutions were mixed in an equivalent weight to make the test solution. Control is a solution excluded the compound of the invention from the test solution.
The test solution was administered into CDF1 mouse in a similar way to that of the test of enhancing action for hepatitis vaccine as mentioned above, to obtain primary and secondary response sera.

[3] = tested on: leukemia cells of L-1210 mouse; assay: Activation for macrophages: cytostatic rate of intraperitoneal macrophages on leukemia cells; type: in vivo; details: CDF1 mouse i.p. 500 μg/ml, 0.2 ml; macrophages collected after 4 days; macrophages:L-1210 cells 20:1; 72 hours
Description: (4) Activation for macrophages
A test solution of a compound of the invention in physicological saline (500 μg/ml, 0.2 ml) was intraperioneally injected into CDF1 mouse (one group consisting of mice). Intraperioneal macrophages which were collected after 4 days and leukemia cells of L-1210 mouse were mixed at the cell ratio of 20 and 1. Each 200 μl of the mixture was put on a microplate having 96 holes. After 72 hours, numbers of cells in each holes were counted, and cytostatic rate of the mixture was measured.

[4] = Stimulation effect on antibody producing cells (plaque numbers, Cunningham technique); type: in vivo, ICR mouse; details: for Plaque No.: ICR mouse, SRBC i.v. and compound 500 μg/ml, 0.2 ml i.v., splenic cells after 4 days; for Stimulation index: plaque number relative to control (saline) = 1
Description: (5) Stimulation effect on anti-body precluding cells
A solution of sheep […] (SRBC) in phosphate buffered physiological saline (5×10^7 cells/ml), 0.2 ml was injected into tail intravenous vein of ICR mouse (7 mice per group). At the same time, a solution of a compound of the invention in physiological saline (500 μg/ml), 0.2 ml was similarly injected. After 4 days, lien was picked up from the treated mouse to obtain splenic cells. Plaque numbers were measured by Cunningham technique.

E. coli (JC-2) = assay: Phylactic effect, E. coli infection; type: in vivo; details: ICR mouse; compound 500 μg/ml, 0.2 ml i.p. one day before infection i.p. 1×10^7 /mouse; after 7 days of infection
Description: (§1) A solution of a compound of the invention in physiological saline (500 μg/ml), 0.2 ml was intraperitoneally injected into ICR mouse (20 mice per group). After a day, E. coli (JC-2) and Psud. aeruginosa (NCTC 10490) were incubated through intraperitoneal route so as to be at concentration of 1×10^7 /mouse. Survival rate after 7 days of infection was measured.

[5] = tested on: Psud. aeruginosa (NCTC 10490); assay: Phylactic effect, Psud. aeruginosa infection; type: in vivo; details: ICR mouse; compound 500 μg/ml, 0.2 ml i.p. one day before infection i.p. 1×10^7 /mouse; after 7 days of infection
Description: as §1

Meth A fibrosarcomas = assay: Antitumour effect, Meth A fibrosarcoma; type: in vivo; details: BALB/C mouse; s.c. 0.2 ml mixture of Meth A cells (1×10^6 cells/ml) and compound (1,000 μg/ml); after 35 days
Description: Meth A fibrosarcomas were suspended in phosphate buffered physiological saline (1×10^6 cells/ml). Separately, a solution of a compound of the invention in physiological saline was prepared (1,000 μg/ml). An equivalent weight mixture of these two solution (0.2 ml) was subcutaneously injected into BALB/C mouse (20 mice per group). Survival rate after 35 days was measured.

Row | Compound | Swelling of Foot-pad (BCG killed vaccine) [× 0.01 mm] | Anti HBs-ELISA unit, Primary response serum [1] | Anti HBs-ELISA unit, Secondary response serum [1] | Anti-influenza HA virus ELISA unit, Primary response serum [2] | Anti-influenza HA virus ELISA unit, Secondary response serum [2] | Cytostatic rate [3] [%] | Plaque No. [4] | Stimulation index [4] | Survival rate, E. coli (E. coli (JC-2)) [%] | Survival rate, Psud. aeruginosa [5] [%] | Survival rate (Meth A fibrosarcomas) [%]
1 | CCCCCCCCCCCC(=O)O[C@H](CCCCCCCCCCC)CC(=O)OC[C@H]1OC(O)[C@H](NC(C)=O)[C@@H](O[C@H](C)C(=O)N[C@@H](C)C(=O)N[C@H](CCC(=O)OC)C(N)=O)[C@@H]1O (stereo partly drawn) [Example 1, N-[[2-O-{2-Acetamido-2,3-dideoxy-6-O-[(3R)-3-dodecanoyloxytetradecanoyl]-D-glucopyranos-3-yl}-D-lactoyl]]-L-alanyl-D-isoglutamine methyl ester] | 59.2 ± 15.1 | 10,800 ELISA unit | 150,000 ELISA unit | 4,800 ELISA unit | 34,000 ELISA unit | 40.0 ± 1.2 | 10.56 ± 8.3 × 10^3 | 2.2 | 50 | 45 | 30
2 | CCCCCCCCCCCCCCCC(=O)O[C@H](CCCCCCCCCCC)CC(=O)OC[C@H]1OC(O)[C@H](NC(C)=O)[C@@H](O[C@H](C)C(=O)N[C@@H](C)C(=O)N[C@H](CCC(=O)OC)C(N)=O)[C@@H]1O (stereo partly drawn) [Example 3, N-[[2-O-{2-Acetamido-2,3-dideoxy-6-O-[(3R)-3-hexadecanoyloytetradecanoyl]-D-glucopyranos-3-yl}-D-lactoyl]]-L-alanyl-D-isoglutamine methyl ester] | 66.2 ± 12.3 | 24,000 ELISA unit | 575,000 ELISA unit | 5,200 ELISA unit | 57,000 ELISA unit | 22.3 ± 1.0 | 21.23 ± 9.9 × 10^3 | 4.4 | 45 | 40 | 20
